Data published in paper PMC6984391, “Anion carriers as potential treatments for cystic fibrosis: transport in cystic fibrosis cells, and additivity to channel-targeting drugs” (Chemical Science, 2019).

Experiments:
Type in all cases: cell-based
[1] = molecular target: T1, Ca^2+-activated Cl^– channel (CaCC) (Homo sapiens, UniProt Q5XXA6); assay: CaCC-mediated anion transport in YFP-CFBE cells; settings: UTP 1 mM; CaCCinh-A01 10 μM
T1 construct: endogenous in cells; host or cells: CFBE41o- cells stably expressing YFP (YFP-CFBE cells)
T1 sequence (Q5XXA6 1-986): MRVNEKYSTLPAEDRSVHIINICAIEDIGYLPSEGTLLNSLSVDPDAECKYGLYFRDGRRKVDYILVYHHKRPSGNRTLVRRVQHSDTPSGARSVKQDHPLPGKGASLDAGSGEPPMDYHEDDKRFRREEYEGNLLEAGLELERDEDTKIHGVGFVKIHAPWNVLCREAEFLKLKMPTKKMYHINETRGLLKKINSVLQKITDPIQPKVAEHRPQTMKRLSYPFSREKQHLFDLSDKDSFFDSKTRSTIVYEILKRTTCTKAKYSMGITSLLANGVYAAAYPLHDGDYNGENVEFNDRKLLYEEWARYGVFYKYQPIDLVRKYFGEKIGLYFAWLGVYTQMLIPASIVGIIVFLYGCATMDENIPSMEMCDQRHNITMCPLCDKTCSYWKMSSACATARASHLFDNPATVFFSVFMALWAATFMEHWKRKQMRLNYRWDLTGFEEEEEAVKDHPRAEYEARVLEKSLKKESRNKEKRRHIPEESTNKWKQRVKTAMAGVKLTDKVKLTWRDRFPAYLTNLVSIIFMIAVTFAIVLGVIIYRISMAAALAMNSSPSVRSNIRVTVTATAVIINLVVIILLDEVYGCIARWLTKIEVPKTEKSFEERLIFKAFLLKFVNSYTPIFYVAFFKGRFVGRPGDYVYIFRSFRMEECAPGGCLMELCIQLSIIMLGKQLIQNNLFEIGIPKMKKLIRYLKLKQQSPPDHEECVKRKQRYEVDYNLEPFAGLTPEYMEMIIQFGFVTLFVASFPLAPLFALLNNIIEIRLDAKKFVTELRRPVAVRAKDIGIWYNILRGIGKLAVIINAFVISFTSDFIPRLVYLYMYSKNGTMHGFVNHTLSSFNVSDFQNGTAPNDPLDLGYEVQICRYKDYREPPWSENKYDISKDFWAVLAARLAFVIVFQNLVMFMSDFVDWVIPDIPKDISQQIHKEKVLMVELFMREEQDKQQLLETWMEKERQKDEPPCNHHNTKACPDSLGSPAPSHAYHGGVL
Method: (for chemical structure, see ESI Fig. S15 ^†).
the PBS bathing cells 10 minutes prior to PBS iodide addition, whereas UTP was added to cells with the PBS iodide solution. Fluorescence was measured for 14 seconds; 2 seconds before and 12 seconds after injection of 110 l PBS iodide solution (137 mM Cl- replaced by I-) into each well (to obtain a final concentration of I- of 100 mM).
fluorescence microscopy as described previously.10 In brief, YFP-FRT cells were washed 3x with PBS before transfer to a perfusion chamber mounted on the stage of a Leica DM IRB microscope. […] Any anionophore not incorporated into YFP-FRT cell membranes was removed from the chamber by perfusion with PBS when fluorescence measurements commenced. […]
Fluorescence quenching by the anionophore vehicle DMSO was subtracted from each test measurement. […]

F508del-CFTR = molecular target: T2, F508del-CFTR (Homo sapiens, UniProt P13569, DEL508-508); assay: F508del-CFTR-mediated anion transport in F508del-CFTR-YFP-FRT cells; settings: forskolin 10 μM, cells grown at 37 °C
T2 construct: expressed in transfected cells
T2 sequence (P13569 with tags, fused parts or gaps DEL508-508): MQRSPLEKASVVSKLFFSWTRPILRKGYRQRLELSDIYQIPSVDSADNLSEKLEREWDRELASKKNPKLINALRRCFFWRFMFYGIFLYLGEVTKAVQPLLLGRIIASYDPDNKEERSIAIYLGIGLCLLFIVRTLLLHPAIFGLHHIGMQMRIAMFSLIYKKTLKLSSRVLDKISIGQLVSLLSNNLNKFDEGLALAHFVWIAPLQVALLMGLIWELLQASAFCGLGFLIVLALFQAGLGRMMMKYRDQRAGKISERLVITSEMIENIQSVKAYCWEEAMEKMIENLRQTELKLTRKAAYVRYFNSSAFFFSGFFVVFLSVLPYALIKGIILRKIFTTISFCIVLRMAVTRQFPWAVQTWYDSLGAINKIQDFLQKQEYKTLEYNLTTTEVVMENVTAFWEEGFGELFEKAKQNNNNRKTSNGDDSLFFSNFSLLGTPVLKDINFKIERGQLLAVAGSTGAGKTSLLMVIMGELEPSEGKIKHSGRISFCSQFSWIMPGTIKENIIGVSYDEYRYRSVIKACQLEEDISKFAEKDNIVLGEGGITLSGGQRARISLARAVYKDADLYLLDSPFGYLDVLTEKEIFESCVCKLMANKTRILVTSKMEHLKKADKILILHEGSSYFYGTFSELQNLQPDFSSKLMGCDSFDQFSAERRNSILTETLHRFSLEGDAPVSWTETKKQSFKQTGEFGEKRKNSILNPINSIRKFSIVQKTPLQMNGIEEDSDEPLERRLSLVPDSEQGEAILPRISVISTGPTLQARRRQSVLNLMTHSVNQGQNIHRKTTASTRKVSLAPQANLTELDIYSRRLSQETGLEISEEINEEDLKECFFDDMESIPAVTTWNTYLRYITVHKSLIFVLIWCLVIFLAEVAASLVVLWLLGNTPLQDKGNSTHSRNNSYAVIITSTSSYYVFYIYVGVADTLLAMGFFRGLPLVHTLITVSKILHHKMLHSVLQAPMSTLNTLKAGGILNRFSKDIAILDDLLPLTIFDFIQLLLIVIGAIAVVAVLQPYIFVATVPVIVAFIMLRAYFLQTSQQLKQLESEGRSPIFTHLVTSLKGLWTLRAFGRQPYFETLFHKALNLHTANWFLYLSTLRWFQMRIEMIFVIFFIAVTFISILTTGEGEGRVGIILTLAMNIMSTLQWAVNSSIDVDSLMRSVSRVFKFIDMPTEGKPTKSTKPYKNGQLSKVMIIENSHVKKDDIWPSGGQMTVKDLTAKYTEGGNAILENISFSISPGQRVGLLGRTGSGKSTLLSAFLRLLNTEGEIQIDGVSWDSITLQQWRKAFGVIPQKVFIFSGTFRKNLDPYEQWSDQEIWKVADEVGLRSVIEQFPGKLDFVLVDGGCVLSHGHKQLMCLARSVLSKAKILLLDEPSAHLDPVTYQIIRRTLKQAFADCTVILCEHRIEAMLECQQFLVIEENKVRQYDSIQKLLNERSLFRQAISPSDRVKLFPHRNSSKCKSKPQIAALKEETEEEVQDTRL
Excerpt: To learn whether anionophores are additive to small molecules that rescue disease-causing CFTR variants, we used FRT cells co-expressing F508del-CFTR, the predominant CF mutation and YFP-H148Q/I152L (F508del-CFTR-YFP-FRT cells).[28] To rescue the plasma membrane expression of F508del-CFTR, we used low temperature or the clinically-licensed CFTR corrector lumacaftor,[38],[39] while to increase its activity, we used the clinically-licensed CFTR potentiator ivacaftor.[40]
FRT cells stably expressing the halide sensor YFP-H148Q/I152L6 were generous gifts of AS Verkman (University of California, San Francisco), while CFBE41o- cells7 stably expressing YFP (YFP-CFBE cells) were a generous gift of LJV Galietta (Telethon Institute for Genetics and Medicine). YFP-FRT cells were cultured as described previously for FRT cells8 except that media contained 10% fetal bovine serum, 2 mM L-glutamine and the selection agent G418 (YFP-FRT cells, 0.5 mg ml-1; WT-CFTR-YFP-FRT cells, 0.75 mg ml-1) or zeocin (F508del-CFTR-YFP-FRT cells, 0.5 mg ml-1). […]
For fluorescence microplate reader studies, cells were seeded in 96-well plates and grown in culture media at 37 °C in a humidified atmosphere with 5% CO2 for 3 – 4 days until 90% confluent. […] For fluorescence microscopy studies, YFP -FRT cells were plated on glass coverslips an d used 4 – 5 days later when cell confluency was 80%.
Fluorescence plate reader assay […]
quenching of YFP fluorescence at 37 °C using a microplate reader following the method of Galietta et al..9 The microplate reader (model: FLUORstar Omega; BMG LABTECH Ltd., Aylesbury, UK) was equipped with a syringe pump and excitation (500 ± 10 nm) and emission (535 ± 15 nm) filters (Chroma Technology GmbH, Olching, Germany). […]
the PBS bathing cells 10 minutes prior to PBS iodide addition, whereas UTP was added to cells with the PBS iodide solution. Fluorescence was measured for 14 seconds; 2 seconds before and 12 seconds after injection of 110 µl PBS iodide solution (137 mM Cl- replaced by I-) into each well (to obtain a final concentration of I- of 100 mM). […]

wild-type human CFTR = molecular target: T3, wild-type human CFTR (Homo sapiens, UniProt P13569); assay: CFTR-mediated anion transport in WT-CFTR-YFP-FRT cells; settings: forskolin 10 μM; CFTRinh-172 10 μM
T3 construct: expressed in transfected cells
T3 sequence (P13569 whole entry): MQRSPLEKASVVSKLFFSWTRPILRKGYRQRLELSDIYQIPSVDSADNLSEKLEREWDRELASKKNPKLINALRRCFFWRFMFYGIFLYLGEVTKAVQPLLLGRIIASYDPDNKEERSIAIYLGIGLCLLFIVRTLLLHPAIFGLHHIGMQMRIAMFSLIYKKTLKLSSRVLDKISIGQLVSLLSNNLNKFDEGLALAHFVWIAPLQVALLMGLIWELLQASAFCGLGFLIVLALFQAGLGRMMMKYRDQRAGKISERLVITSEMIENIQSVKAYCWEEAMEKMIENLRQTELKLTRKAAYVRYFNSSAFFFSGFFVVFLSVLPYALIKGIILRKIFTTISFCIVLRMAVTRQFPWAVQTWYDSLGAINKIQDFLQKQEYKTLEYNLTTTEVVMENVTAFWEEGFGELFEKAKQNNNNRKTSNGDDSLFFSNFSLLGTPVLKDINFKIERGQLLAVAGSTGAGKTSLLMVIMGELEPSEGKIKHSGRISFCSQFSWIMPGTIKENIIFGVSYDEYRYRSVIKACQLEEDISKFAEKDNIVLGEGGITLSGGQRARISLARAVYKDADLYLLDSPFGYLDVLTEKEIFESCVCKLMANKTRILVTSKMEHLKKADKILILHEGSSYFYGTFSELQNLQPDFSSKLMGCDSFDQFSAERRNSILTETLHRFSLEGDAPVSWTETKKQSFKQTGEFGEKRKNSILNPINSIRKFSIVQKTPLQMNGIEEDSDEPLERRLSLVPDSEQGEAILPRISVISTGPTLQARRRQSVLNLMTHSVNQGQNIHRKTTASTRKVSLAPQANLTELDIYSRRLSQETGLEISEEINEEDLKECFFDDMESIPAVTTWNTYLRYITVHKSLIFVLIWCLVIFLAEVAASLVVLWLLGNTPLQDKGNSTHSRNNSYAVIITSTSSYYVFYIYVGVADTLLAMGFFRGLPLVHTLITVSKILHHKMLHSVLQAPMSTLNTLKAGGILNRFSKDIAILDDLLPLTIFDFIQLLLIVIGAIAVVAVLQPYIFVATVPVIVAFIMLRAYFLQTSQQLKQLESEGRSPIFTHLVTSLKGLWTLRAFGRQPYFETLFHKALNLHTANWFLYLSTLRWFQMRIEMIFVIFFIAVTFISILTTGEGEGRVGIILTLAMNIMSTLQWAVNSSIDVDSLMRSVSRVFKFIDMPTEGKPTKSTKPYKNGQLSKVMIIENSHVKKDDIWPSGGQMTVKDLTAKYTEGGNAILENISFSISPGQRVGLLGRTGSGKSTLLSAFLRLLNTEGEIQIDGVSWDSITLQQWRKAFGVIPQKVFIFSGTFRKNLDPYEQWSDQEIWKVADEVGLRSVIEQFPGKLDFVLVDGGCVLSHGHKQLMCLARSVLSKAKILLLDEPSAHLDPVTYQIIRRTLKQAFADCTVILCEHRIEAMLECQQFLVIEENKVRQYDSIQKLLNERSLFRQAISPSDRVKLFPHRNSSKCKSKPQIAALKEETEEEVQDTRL
Method: Next, we sought to learn whether the activities of 11, 12, 15, and 19 are additive to that of CFTR. For these studies, we used FRT cells co-expressing wild-type human CFTR and YFP-H148Q/I152L (WT-CFTR-YFP-FRT cells).[28] […] This latter effect is difficult to explain and merits further investigation. […]
the PBS bathing cells 10 minutes prior to PBS iodide addition, whereas UTP was added to cells with the PBS iodide solution. Fluorescence was measured for 14 seconds; 2 seconds before and 12 seconds after injection of 110 µl PBS iodide solution (137 mM Cl- replaced by I-) into each well (to obtain a final concentration of I- of 100 mM).
We expressed cell fluorescence values (F) relative to the fluorescence value immediately before I- injection (F0), excluding the initial decrease, which likely represents the quenching of extracellular YFP released from cells and signal reduction accompanying the increase in solution volume bathing cells. To quantify anion transport by test anionophores, we determined the initial slope of the fluorescence decay following I - addition by fitting first order exponential functions to the last 12 seconds of each fluorescence recording. […]
fluorescence microscopy as described previously.10 In brief, YFP-FRT cells were washed 3x with PBS before transfer to a perfusion chamber mounted on the stage of a Leica DM IRB microscope. […]

SMILES | effect on CaCC activity [1] | anion transport in control F508del-CFTR-YFP-FRT cells (F508del-CFTR) | effect on anion transport in WT-CFTR-YFP-FRT cells (wild-type human CFTR)
O=c1ccn([C@@H]2O[C@H](COP(=O)(O)OP(=O)(O)OP(=O)(O)O)[C@@H](O)[C@H]2O)c(=O)[nH]1 [UTP] | activated little CaCC activity | – | –
C=C[C@@]1(C)CC(=O)[C@]2(O)[C@@]3(C)[C@@H](O)CCC(C)(C)[C@@H]3[C@H](O)[C@H](OC(C)=O)[C@@]2(C)O1 [forskolin] | – | little effect | robustly stimulated anion transport
O=C(O)c1ccc(/C=C2\SC(=S)N(c3cccc(C(F)(F)F)c3)C2=O)cc1 [CFTRinh-172] | – | – | inhibited, albeit incompletely
